Experimental data from ChEMBL document CHEMBL1149609, “Synthesis and evaluation of human T cell stimulating activity of an alpha-sulfatide analogue” (Bioorg Med Chem, 2007).
Calls of active or inactive are those of the source. The calls are words filed in the database; no cut-off is given here.

Experiments:
Type in all cases: functional
Homo sapiens [1] = species: Homo sapiens; experiment: Stimulation of sulfatide-specific CD1a-restricted Tcell clone K34B9.1 assessed as gammaIFN release after 48 hrs by ELISA
Homo sapiens [2] = species: Homo sapiens; experiment: Stimulation of CD1d-restricted iNKTcell clone BGA01 assessed as gammaIFN release after 48 hrs by ELISA
Homo sapiens [3] = species: Homo sapiens; experiment: Stimulation of CD1d-restricted iNKTcell clone BGA89 assessed as gammaIFN release after 48 hrs by ELISA
Homo sapiens [4] = species: Homo sapiens; experiment: Stimulation of sulfatide-specific CD1a-restricted Tcell clone K34B9.1 assessed as IL4 release after 48 hrs by ELISA
Homo sapiens [5] = species: Homo sapiens; experiment: Stimulation of CD1d-restricted iNKTcell clone BGA01 assessed as IL4 release after 48 hrs by ELISA
Homo sapiens [6] = species: Homo sapiens; experiment: Stimulation of CD1d-restricted iNKTcell clone BGA89 assessed as IL4 release after 48 hrs by ELISA

Question: For CCCCCCCCCCCCC/C=C/[C@@H](O)[C@H](CO[C@H]1O[C@H](CO)[C@H](O)[C@H](OS(=O)(=O)O)[C@H]1O)NC(=O)CCCCCCCCCCCCCCCCCCCCC, which Activity (Homo sapiens [1]) is on record?
Answer: Its Activity is “inactive”.

Question: And the Activity (Homo sapiens [2])?
Answer: The Activity was “Active”.

Question: And the Activity (Homo sapiens [3])?
Answer: Its Activity is “Active”.

Question: And the Activity (Homo sapiens [4])?
Answer: The Activity was “inactive”.

Question: And the Activity (Homo sapiens [5])?
Answer: The Activity was “Active”.

Question: And the Activity (Homo sapiens [6])?
Answer: Its Activity is “Active”.
